Values belong to the compound of their own block, whether it stands above or below them.
Key:
[1] = test system: Human immunodeficiency virus 1; assay: Antiviral activity against HIV1 in human TZM-bl cells transfected with firefly luciferase and beta-galactosidase reporter genes assessed as activation of LTR-mediated transcriptional activity incubated for 24 hrs by luciferase reporter gene assay; assay type: functional, organism-based; details: Human immunodeficiency virus 1, TZM-bl
TZM = assay: Cytotoxicity against human TZM-bl cells measured upto 0.1 uM; assay type: toxicity, cell-based

EC50 [1]: 10 nM
SMILES: CCC(=O)O[C@@]12[C@H](OC(=O)c3ccccc3)[C@@H](C)[C@@]3(O)[C@@H](C=C(CO)C[C@]4(O)C(=O)C(C)=C[C@@H]34)[C@@H]1C2(C)C
Activity (TZM): Non-Toxic

EC50 [1]: 0.94 nM
SMILES: CCCCCCC(=O)O[C@@]12[C@H](OC(=O)c3ccccc3)[C@@H](C)[C@@]3(O)[C@@H](C=C(CO)C[C@]4(O)C(=O)C(C)=C[C@@H]34)[C@@H]1C2(C)C

EC50 [1]: 1.5 nM
SMILES: CCCCCCCC(=O)O[C@@]12[C@H](OC(=O)c3ccccc3)[C@@H](C)[C@@]3(O)[C@@H](C=C(CO)C[C@]4(O)C(=O)C(C)=C[C@@H]34)[C@@H]1C2(C)C

EC50 [1]: 0.33 nM
SMILES: C=C(C)[C@]12C[C@@H](COC(C)=O)[C@@]34OC5(O[C@@H]1[C@@H]3[C@@H]1O[C@]1(CO)[C@@H](O)[C@@]1(O)[C@H]4[C@H]([C@H](C)[C@@H]1OCc1ccccc1)[C@H](C)CCCCCC[C@H]5O)O2

EC50 [1]: 12 nM
SMILES: C=C(C)[C@]12C[C@@H](COC(C)=O)[C@@]34OC5(O[C@@H]1[C@@H]3[C@@H]1O[C@]1(CO)[C@@H](O)[C@@]1(O)[C@H]4[C@H]([C@H](C)[C@@H]1OCc1ccccc1)[C@H](C)C[C@H](OCc1ccccc1)CCCC[C@H]5O)O2

EC50 [1]: 3.9 nM
SMILES: C=C(C)[C@]12C[C@@H](COCc3ccccc3)[C@@]34OC5(CCCCC[C@@H](OCc6ccccc6)C[C@@H](C)[C@H]6[C@H](C)[C@H](OCc7ccccc7)[C@@](O)([C@H](O)[C@@]7(CO)O[C@H]7[C@H]3[C@H]1O5)[C@@H]64)O2

EC50 [1]: 3.7 nM
SMILES: C=C(C)[C@]12C[C@@H](COCc3ccccc3)[C@@]34OC5(CCCCCCC[C@@H](C)[C@H]6[C@H](C)C(=O)[C@@](O)([C@H](O)[C@@]7(CO)O[C@H]7[C@H]3[C@H]1O5)[C@@H]64)O2

EC50 [1]: 2.7 nM
SMILES: C=C(C)[C@]12C[C@@H](C)[C@@]34OC5(CCCCCCC[C@@H](C)[C@H]6[C@H](C)[C@H](OCc7ccccc7)[C@@](O)([C@H](O)[C@@]7(CO)O[C@H]7[C@H]3[C@H]1O5)[C@@H]64)O2

EC50 [1]: 0.14 nM
SMILES: C=C(C)[C@]12CC[C@@]34OC(C)(O[C@@H]1[C@@H]3[C@@H]1O[C@]1(CO)[C@@H](O)[C@]1(O)[C@@H](OCc3ccccc3)[C@@H](C)C[C@@H]41)O2

EC50 [1]: 3.7 nM
SMILES: C=C(C)[C@]12CC[C@@]34OC(C)(O[C@@H]1[C@@H]3[C@@H]1O[C@]1(CO)[C@@H](O)[C@]1(O)C(=O)[C@@H](C)C[C@@H]41)O2

The remaining lines, values behind:

SMILES: CCCCC/C=C\CCC(=O)O[C@@]12[C@H](OC(=O)c3ccccc3)[C@@H](C)[C@@]3(O)[C@@H](C=C(CO)C[C@]4(O)C(=O)C(C)=C[C@@H]34)[C@@H]1C2(C)C
EC50 [1]: 4.2 nM
Activity (TZM): Non-Toxic

SMILES: CC/C=C\C/C=C\CCC(=O)O[C@@]12[C@H](OC(=O)c3ccccc3)[C@@H](C)[C@@]3(O)[C@@H](C=C(CO)C[C@]4(O)C(=O)C(C)=C[C@@H]34)[C@@H]1C2(C)C
EC50 [1]: 3.2 nM

SMILES: CCCCCCCC(=O)O[C@@]12[C@H](OC(=O)c3ccccc3)[C@@H](C)[C@]3(O)[C@@H]4C=C(C)C(=O)[C@@]4(O)[C@H](O)C(CO)=C[C@H]3[C@@H]1C2(C)C
EC50 [1]: 12 nM

SMILES: CCCCC/C=C\CCC(=O)O[C@@H]1[C@@H](C)[C@@]2(O)[C@@H](C=C(CO)C[C@]3(O)C(=O)C(C)=C[C@@H]23)[C@@H]2C(C)(C)[C@]12OC(=O)c1ccccc1
EC50 [1]: 18 nM
Activity (TZM): Non-Toxic

SMILES: CCCCC/C=C/CCC(=O)O[C@@]12[C@H](OC(=O)c3ccccc3)[C@@H](C)[C@@]3(O)[C@@H](C=C(CO)C[C@]4(O)C(=O)C(C)=C[C@@H]34)[C@@H]1C2(C)C
EC50 [1]: 5.8 nM
Activity (TZM): Non-Toxic

SMILES: CCCCC/C=C\C/C=C\CCCCCCCC(=O)O[C@@]12[C@H](OC(=O)c3ccccc3)[C@@H](C)[C@@]3(O)[C@@H](C=C(CO)C[C@]4(O)C(=O)C(C)=C[C@@H]34)[C@@H]1C2(C)C
EC50 [1]: 13 nM
Activity (TZM): Non-Toxic

SMILES: CCCCCCCCCCCCCCCCCC(=O)O[C@@]12[C@H](OC(=O)c3ccccc3)[C@@H](C)[C@@]3(O)[C@@H](C=C(CO)C[C@]4(O)C(=O)C(C)=C[C@@H]34)[C@@H]1C2(C)C
Activity (TZM): Non-Toxic

SMILES: CCCCC/C=C/C/C=C\C/C=C\CCCCC(=O)O[C@@]12[C@H](OC(=O)c3ccccc3)[C@@H](C)[C@@]3(O)[C@@H](C=C(CO)C[C@]4(O)C(=O)C(C)=C[C@@H]34)[C@@H]1C2(C)C
EC50 [1]: 10 nM
Activity (TZM): Non-Toxic

SMILES: CCCCCCCC/C=C\CCCCCCCC(=O)O[C@@]12[C@H](OC(=O)c3ccccc3)[C@@H](C)[C@@]3(O)[C@@H](C=C(CO)C[C@]4(O)C(=O)C(C)=C[C@@H]34)[C@@H]1C2(C)C
EC50 [1]: 16 nM
Activity (TZM): Non-Toxic

SMILES: CC/C=C\C/C=C\C/C=C\CCCCCCCC(=O)O[C@@]12[C@H](OC(=O)c3ccccc3)[C@@H](C)[C@@]3(O)[C@@H](C=C(CO)C[C@]4(O)C(=O)C(C)=C[C@@H]34)[C@@H]1C2(C)C
EC50 [1]: 7.6 nM
Activity (TZM): Non-Toxic

SMILES: C=C(C)[C@]12C[C@@H](C)[C@@]34O[C@]5(CCCCCCC[C@H](C)[C@H]6[C@H](C)C(=O)[C@@](O)([C@H](O)[C@@]7(CO)O[C@H]7[C@H]3[C@H]1O5)[C@@H]64)O2
EC50 [1]: 6.9 nM

SMILES: C=C(C)[C@]12C[C@@H](C)[C@@]34O[C@@](CCCCCCCCC)(O[C@@H]1[C@@H]3[C@@H]1O[C@]1(CO)[C@@H](O)[C@]1(O)C(=O)C(C)=C[C@H]14)O2
EC50 [1]: 9 nM

SMILES: C=C(C)[C@@]12O[C@]3(/C=C/C=C/CCCCCCCCC)O[C@@H]1[C@@H]1[C@@H]4O[C@]4(CO)[C@@H](O)[C@]4(O)C(=O)C(C)=C[C@H]4[C@@]1(O3)[C@H](C)[C@H]2OC(C)=O
EC50 [1]: 0.39 nM

SMILES: CCCCCCCCCC(=O)O[C@@]12[C@H](OC(=O)c3ccccc3)[C@@H](C)[C@@]3(O)[C@@H](C=C(CO)C[C@]4(O)C(=O)C(C)=C[C@@H]34)[C@@H]1C2(C)C [STELLERARIN]
EC50 [1]: 0.74 nM

From ChEMBL document CHEMBL5038662, “Isolation, Synthesis, and Structure-Activity Relationship Study on Daphnane and Tigliane Diterpenes as HIV Latency-Reversing Agents” (J Med Chem, 2022)
